The nature of series [1]: Conversion of prazoles to sulfenamide / half-life. The series is classed as physicochemical. An excerpt:
To measure sulfenamide formation: Dissolve each compound in water/buffer and measure the formation of colored compounds by UV-visible absorption, since the initial compound is colorless and the final compound (the sulfenamide dimer) is colored.

Series [2] has as its target T1, Tsg101 UEV domain (Homo sapiens, UniProt Q99816).
T1 construct: Tsg101 UEV domain (residues 2-145) was encoded in a pET-28b vector; His6-TEV site (N, cleaved yes); made in house; host or cells: E. coli Rosetta 2 (DE3) pLysS
T1 sequence (Q99816 2-145): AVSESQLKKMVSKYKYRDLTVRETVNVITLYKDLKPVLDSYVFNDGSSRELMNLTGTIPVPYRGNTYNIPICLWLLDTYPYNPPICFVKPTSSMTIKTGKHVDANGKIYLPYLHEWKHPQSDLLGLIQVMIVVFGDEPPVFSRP
Description: NMR / LC-MS binding of compound to Tsg101 UEV domain. The protocol:
N16 (20 mM solution, DMSO) was added to Tsg101 UEV domain in a 10:1 ratio (N16 excess).
For binding studies using NMR spectroscopy, the following complexes were made: Tsg101 UEV-N16, UEV-PTAP, UEV-Ub, UEV-N16-PTAP, and UEV-N16-Ub, all in Tsg101 NMR buffer: 20 mM potassium phosphate, 50 mM NaCl, pH 5.8, with UEV concentration of 200 μM.

Series [3] has as its target T2, Tsg101 (Homo sapiens, UniProt Q99816).
T2 sequence (Q99816 2-145 limits assumed): T1 sequence (Q99816 2-145)
Description: NWU screening / in vitro binding assay. The text has this: Pantoprazole, Lansoprazole/Dexlansoprazole (dexlansoprazole is the active enantiomer of the racemic lansoprazole), and Rabeprazole were in the NWU screen but were not considered hits.

In series [4] the test system is 293T cells. Nature of the series: Metabolic activity, WST-1 assay, 293T cells. The series is classed as cell-based. Conditions: metabolic measurements, WST-1 reagent. How it is done: FIG. 20A-C. N16 inhibition is virus-specific. A) N16 IC50 for Hela and 293T cells. […] Values were calculated by measuring metabolic activity (WST-1 Assay, Roche Applied Science) after cells were grown for 24 hr in N16. Data points represent the mean of 2 assays, 3 time points each for each cell line. […] Values in the absence or presence of N16 (50 uM) were 12% and 13%, respectively). C) N16 effect on EGF-stimulated EFGR degradation. Cells maintained for 24 hr in media containing DMSO alone or DMSO and N16 were stimulated with EGF ligand for a 90 min period and then assessed for EGFR steady-state level by Western analysis. EGFR levels for unstimulated and stimulated sample pairs are shown. A) n=2; B) n=2; C) n=2.
FIG. 27A-C. Effect of N-Acetyl Cysteine (NAC) on N16-mediated inhibition of VLP production and intracellular Gag accumulation. […] A concentration of 3 mM NAC was therefore used to test the effect of the antioxidative reagent on the N16 inhibitory effect. N16 (0, 12, 25, 50, 75, and 100 uM) was added 8.5 hr prior to transfection with pNL4-3ΔEnv. Cells were harvested 16 hr later. […] C) Quantitative analysis. n=2.
Cells were grown in 96-well trays for 24 hr with increasing levels of drug, metabolic activity was measured using WST-1colorimetric assay (Roche), and IC50 values were calculated (Prism 6, Graph Pad Software Inc.).

The target of series [5] is proteasome (Homo sapiens, UniProt P20618+P28074). To be noted: Gelman et al.; cited from earlier work.

On to `Cc1c(OCC(F)(F)F)ccnc1C[S+]([O-])c1nc2ccccc2[nH]1` (racemic) [Lansoprazole], for which, in series [1], the “slowness of sulfenamide conversion relative to Rabeprazole” value is reported as around 2 ×. The “residue bound in Tsg101 UEV (NMR and fluorescence perturbances)” value in series [2] is “bind to residue C73”. In series [3], the “binding in the NWU screening assay” value was “bound weakly”.

With `CC(=O)N[C@@H](CS)C(=O)O` [NAC, N-Acetyl Cysteine], the “concentration up to which 293T cells were robust” value in series [4] was “at least 4 mM”.

On to `CC(C)C[C@H](NC(=O)[C@H](Cc1ccccc1)NC(=O)c1cnccn1)B(O)O` [bortezomib], for which the “concentration giving proteasome inhibition, previous studies” value in series [5] was at least 5 nM.

The record behind these values is patent publication US12059413B2, “Methods of inhibiting viruses using compositions targeting TSG101-ubiquitin interaction” (The Research Foundation for the State University of New York, priority 2016, dated 2024).
